According to the supplement of paper PMC10307832:

Tests used:
Experiment in all cases: relative viability (nuclei count vs DMSO), 5 days (fraction); higher = more cells survive
[1] = system: RERF-LC-KJ
Procedure, shortened: (§1)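 Nuclei were stained with Hoechst during a one-step fixation (final 0.05% Triton X-100, 1% formaldehyde, 1 ug/ml Hoechst) carried out 5 days after dosing, then counted on 4× images. The cells, lung cancer lines in 1536-well plates, had been dosed by pin tool the day after seeding with one drug alone or a fixed anchor-drug dose plus five library-drug doses (not always all listed) in √10 steps. Relative viability is the nuclei count in treated wells divided by that in vehicle wells, and each value is the median of duplicate plates.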

[2] = system: EMC-BAC-2
Procedure, shortened: as §1

[3] = system: NCI-H1437
Procedure, shortened: as §1

[4] = system: NCI-H1734
Procedure, shortened: as §1

[5] = system: 201T
Procedure, shortened: as §1

[6] = system: LCLC-103H
Procedure, shortened: as §1

[7] = system: NCI-H1792
Procedure, shortened: as §1

[8] = system: NCI-H661
Procedure, shortened: as §1

[9] = system: NCI-H1395
Procedure, shortened: as §1

[10] = system: NCI-H1975
Procedure, shortened: as §1

[11] = system: UMC-11
Procedure, shortened: as §1

[12] = system: NCI-H1793
Procedure, shortened: as §1

[13] = system: SK-LU-1
Procedure, shortened: as §1

[14] = system: EPLC-272H
Procedure, shortened: as §1

[15] = system: HCC-78
Procedure, shortened: as §1

[16] = system: NCI-H1651
Procedure, shortened: as §1

[17] = system: NCI-H647
Procedure, shortened: as §1

[18] = system: LOU-NH91
Procedure, shortened: as §1

[19] = system: NCI-H2405
Procedure, shortened: as §1

[20] = system: NCI-H2023
Procedure, shortened: as §1

[21] = system: NCI-H1915
Procedure, shortened: as §1

[22] = system: NCI-H23
Procedure, shortened: as §1

[23] = system: ABC-1
Procedure, shortened: as §1

O=C(O)CCCCC(CCSCc1ccccc1)SCc1ccccc1 (stereo not drawn) [CPI-613] + Cc1nc(NC(=O)N2CCC[C@H]2C(N)=O)sc1-c1ccnc(C(C)(C)C(F)(F)F)c1 [Alpelisib] (partner 2 µM) gave a relative viability ([1]; first compound 5 µM) of 0.748, a relative viability ([1]; first compound 15.81 µM) of 1.34 and a relative viability ([1]; first compound 50 µM) of 0.757. For the same compound, the relative viability ([1]; first compound 158.11 µM) was 0.869, the relative viability ([1]; first compound 500 µM) was 0.733 and the relative viability ([2]; first compound 5 µM) was 0.713. It also gave a relative viability ([2]; first compound 15.81 µM) of 0.702, a relative viability ([2]; first compound 50 µM) of 0.72 and a relative viability ([2]; first compound 158.11 µM) of 0.68. It also gave a relative viability ([2]; first compound 500 µM) of 0.119, a relative viability ([3]; first compound 5 µM) of 0.944 and a relative viability ([3]; first compound 15.81 µM) of 0.961. It also gave a relative viability ([3]; first compound 50 µM) of 1.03, a relative viability ([3]; first compound 158.11 µM) of 0.16 and a relative viability ([3]; first compound 500 µM) of 0.0244. For the same compound, the relative viability ([4]; first compound 5 µM) was 0.629, the relative viability ([4]; first compound 15.81 µM) was 0.694 and the relative viability ([4]; first compound 50 µM) was 0.625. It also gave a relative viability ([4]; first compound 158.11 µM) of 0.493, a relative viability ([4]; first compound 500 µM) of 0.098 and a relative viability ([5]; first compound 5 µM) of 1. For the same compound, the relative viability ([5]; first compound 15.81 µM) was 0.976, the relative viability ([5]; first compound 50 µM) was 0.996 and the relative viability ([5]; first compound 158.11 µM) was 1.01. It also gave a relative viability ([5]; first compound 500 µM) of 1.01, a relative viability ([6]; first compound 5 µM) of 0.845 and a relative viability ([6]; first compound 15.81 µM) of 0.974. It also gave a relative viability ([6]; first compound 50 µM) of 0.883, a relative viability ([6]; first compound 158.11 µM) of 0.873 and a relative viability ([6]; first compound 500 µM) of 0.964. The relative viability ([7]; first compound 5 µM) was 0.675, the relative viability ([7]; first compound 15.81 µM) was 0.646 and the relative viability ([7]; first compound 50 µM) was 0.71. The relative viability ([7]; first compound 158.11 µM) was 0.555, the relative viability ([7]; first compound 500 µM) was 0.709 and the relative viability ([8]; first compound 5 µM) was 0.68. For the same compound, the relative viability ([8]; first compound 15.81 µM) was 0.515, the relative viability ([8]; first compound 50 µM) was 0.939 and the relative viability ([8]; first compound 158.11 µM) was 0.594. It also gave a relative viability ([8]; first compound 500 µM) of 0.608, a relative viability ([9]; first compound 5 µM) of 0.988 and a relative viability ([9]; first compound 15.81 µM) of 1.08. For the same compound, the relative viability ([9]; first compound 50 µM) was 1.27, the relative viability ([9]; first compound 158.11 µM) was 0.99 and the relative viability ([9]; first compound 500 µM) was 0.75. The relative viability ([10]; first compound 5 µM) was 0.542, the relative viability ([10]; first compound 15.81 µM) was 0.655 and the relative viability ([10]; first compound 50 µM) was 0.692. For the same compound, the relative viability ([10]; first compound 158.11 µM) was 0.327, the relative viability ([10]; first compound 500 µM) was 0.0528 and the relative viability ([11]; first compound 5 µM) was 0.89. It also gave a relative viability ([11]; first compound 15.81 µM) of 0.964, a relative viability ([11]; first compound 50 µM) of 1.02 and a relative viability ([11]; first compound 158.11 µM) of 0.398. For the same compound, the relative viability ([11]; first compound 500 µM) was 0.0725, the relative viability ([12]; first compound 5 µM) was 0.671 and the relative viability ([12]; first compound 50 µM) was 0.66. The relative viability ([12]; first compound 158.11 µM) was 0.273, the relative viability ([12]; first compound 500 µM) was 0.109 and the relative viability ([13]; first compound 5 µM) was 1.05. The relative viability ([13]; first compound 15.81 µM) was 0.849, the relative viability ([13]; first compound 50 µM) was 0.57 and the relative viability ([13]; first compound 158.11 µM) was 0.175. The relative viability ([13]; first compound 500 µM) was 0.114, the relative viability ([14]; first compound 5 µM) was 0.95 and the relative viability ([14]; first compound 15.81 µM) was 0.813. For the same compound, the relative viability ([14]; first compound 50 µM) was 0.94, the relative viability ([14]; first compound 158.11 µM) was 0.923 and the relative viability ([14]; first compound 500 µM) was 1.04. It also gave a relative viability ([15]; first compound 5 µM) of 0.26, a relative viability ([15]; first compound 15.81 µM) of 0.309 and a relative viability ([15]; first compound 158.11 µM) of 0.338. It also gave a relative viability ([15]; first compound 500 µM) of 0.358, a relative viability ([16]; first compound 5 µM) of 0.969 and a relative viability ([16]; first compound 15.81 µM) of 0.895. For the same compound, the relative viability ([16]; first compound 50 µM) was 0.967, the relative viability ([16]; first compound 158.11 µM) was 0.41 and the relative viability ([16]; first compound 500 µM) was 0.116. It also gave a relative viability ([17]; first compound 5 µM) of 1.19, a relative viability ([17]; first compound 15.81 µM) of 0.968 and a relative viability ([17]; first compound 50 µM) of 0.769. It also gave a relative viability ([17]; first compound 158.11 µM) of 0.0933, a relative viability ([17]; first compound 500 µM) of 0.0159 and a relative viability ([18]; first compound 5 µM) of 0.73. It also gave a relative viability ([18]; first compound 15.81 µM) of 0.679, a relative viability ([18]; first compound 50 µM) of 0.743 and a relative viability ([18]; first compound 158.11 µM) of 0.728. For the same compound, the relative viability ([18]; first compound 500 µM) was 0.718, the relative viability ([19]; first compound 5 µM) was 0.882 and the relative viability ([19]; first compound 15.81 µM) was 0.78. The relative viability ([19]; first compound 50 µM) was 0.778, the relative viability ([19]; first compound 158.11 µM) was 0.772 and the relative viability ([19]; first compound 500 µM) was 0.734. The relative viability ([20]; first compound 5 µM) was 0.624, the relative viability ([20]; first compound 15.81 µM) was 0.576 and the relative viability ([20]; first compound 50 µM) was 0.548. It also gave a relative viability ([20]; first compound 158.11 µM) of 0.0809, a relative viability ([20]; first compound 500 µM) of 0.0084 and a relative viability ([21]; first compound 5 µM) of 1.12. It also gave a relative viability ([21]; first compound 15.81 µM) of 1.04, a relative viability ([21]; first compound 50 µM) of 1.01 and a relative viability ([21]; first compound 158.11 µM) of 0.925. The relative viability ([21]; first compound 500 µM) was 0.926, the relative viability ([22]; first compound 5 µM) was 0.684 and the relative viability ([22]; first compound 15.81 µM) was 0.604. The relative viability ([22]; first compound 50 µM) was 0.685, the relative viability ([22]; first compound 158.11 µM) was 0.143 and the relative viability ([22]; first compound 500 µM) was 0.0565. It also gave a relative viability ([23]; first compound 5 µM) of 1.02, a relative viability ([23]; first compound 15.81 µM) of 1.2 and a relative viability ([23]; first compound 50 µM) of 1.26. The relative viability ([23]; first compound 158.11 µM) was 0.39 and the relative viability ([23]; first compound 500 µM) was 0.223.
